Measurements taken from patent US20030032003A1, “IN VIVO SELECTION” (priority 2000, published 2003).
Read-outs that look alike come from different tables or passages of the source.

How the values were obtained:
[1] = tested on: embryos of C57BL6/J Hprt −/− females mated with wildtype Hprt +/o males; type: in vivo; conditions: for Offspring ♀ (Hprt +/−, sensitive) / Offspring ♂ (Hprt −/o, resistant): three i.p. injections of 20 mg/kg in 24 hrs intervals during gestation
Procedure: The animals were housed in standard plastic microisolator cages with wood-chip bedding. The room was maintained at 22° C. and 70% humidity and the light cycle was 12 hours. Water and mouse diet No:5015 (PMI Feeds, Inc., St. Louis, Mo.) was supplied ad libitum. All housing and treatment protocols were reviewed and approved by an institutional Animal Care Committee.
Hprt −/− females (5-8 weeks old) were mated with wildtype males and the presence of vaginal plugs was examined daily. The day when a plug appeared was considered to be day 1 of pregnancy and the male was separated. The pregnant dams were treated with three i.p. injections of 6-thioguanine (20 mg/kg) or in control matings with saline starting […] in 24 hrs intervals. Pregnant mice were examined daily until term. The gender of offsprings was first determined 24 days after delivery and confirmed at the time of weaning (4 weeks of age).
An experiment was designed to investigate whether one could select against Hprt wildtype embryos with 6-thioguanine. Female mice C57BL6/J Hprt −/− were mated with wildtype Hprt +/o males. Since the Hprt gene is located on the X chromosome the resulting male offspring will be Hprt −/o and therefore resistant to 6-thioguanine (6TG). On the other hand, female offspring will be Hprt +/− and thus sensitive to 6TG. 6TG (Sigma) was injected i.p. in three subsequential doses (20 mg/kg each) in 24 hrs intervals starting on the third day of gestation. Mice were screened two times daily for possible toxic effects.

[2] = tested on: T cells from Lesch Nyhan syndrome patients and Hprt deficient brothers; conditions: cited from earlier work
[3] = tested on: Hprt −/− (Hprt deficient) mice; assay: Acute toxicity of 6TG, approximate lethal dose; conditions: for body weight, percentage of the body weight before the experiment / survival: Hprt −/−, 14 days
Hprt −/− mice = assay: Biochemical analysis of mouse serum after 6TG; type: in vivo; conditions: serum 14 days after treatment
Procedure: Serum biochemistry parameters analyzed included blood urea nitrogen (BUN), aspartate amino transferase (AST), alanine amino transferase (ALT), creatine kinase (CK), and alkaline phosphatase (AP). The analyses were performed at Tufts University Veterinary Medical Diagnosis Laboratory with the chemical analyser Hitachi 747. Blood was collected from the posterior vena cava of Hprt deficient mice that were either treated with water, 25, 500, or 720 mg/kg 6TG i.p. and wildtype mice administered 25 mg/kg 6TG.
[…] Serum samples taken 14 days after treatment were evaluated for the levels of blood urea nitrogen (BUN), aspartate amino transferase (AST), alanine amino transferase (ALT), creatine kinase (CK) and alkaline phosphatase (AP). Elevated BUN is associated with dehydratation and/or renal insufficiency. Elevated activities of ALT and AST are characteristic for liver damage particularly necrosis, cirrhosis and/or hepatitis and also muscle trauma or myocardial infarction or myositis. Elevated AP is associated mostly with increased bone marrow metabolism and also with hapatocellular damage during hepatitis. CK is predominantly located in muscles and therefore its increased activities are consequence of muscular trauma, myocardial infarction or myopathic disorders.

Nc1nc(S)c2[nH]cnc2n1 [6TG, 2-amino-6-merkaptopurine]
Offspring ♀ (Hprt +/−, sensitive) ([1]; Dam 1T): 0
Offspring ♂ (Hprt −/o, resistant) ([1]; Dam 1T): 4
Offspring ♀ (Hprt +/−, sensitive) ([1]; Dam 2T): 0
Offspring ♂ (Hprt −/o, resistant) ([1]; Dam 2T): 2
toxicity to the dams ([1]; Hprt −/− dams, three doses 20 mg/kg i.p.): did not cause any apparent toxic symptoms or discomfort to the dams
male offspring delivered ([1]; two 6TG treated dams together): 6
6TG resistance higher than cells from normal individuals ([2]; T cells from Lesch Nyhan syndrome patients): 300 fold
6TG resistance greater than normal individuals ([2]; T cells of Hprt deficient brothers without signs of the disease): 10 fold
approximate lethal dose ([3]; Hprt −/− animals, single i.p.): 1148 mg/kg
increase of approximate lethal dose over the wildtype strain ([3]; Hprt −/− vs wildtype): 23 fold
body weight, percentage of the body weight before the experiment ([3]; 25 mg/kg single i.p.): 101%
survival ([3]; 25 mg/kg single i.p.): surv (surv, animals survived the 14 days period)
body weight, percentage of the body weight before the experiment ([3]; 50 mg/kg single i.p.): 102%
survival ([3]; 50 mg/kg single i.p.): surv (surv, animals survived the 14 days period)
body weight, percentage of the body weight before the experiment ([3]; 100 mg/kg single i.p.): 103%
survival ([3]; 100 mg/kg single i.p.): surv (surv, animals survived the 14 days period)
body weight, percentage of the body weight before the experiment ([3]; 150 mg/kg single i.p.): 101%
survival ([3]; 150 mg/kg single i.p.): surv (surv, animals survived the 14 days period)
body weight, percentage of the body weight before the experiment ([3]; 225 mg/kg single i.p.): 100%
survival ([3]; 225 mg/kg single i.p.): surv (surv, animals survived the 14 days period)
body weight, percentage of the body weight before the experiment ([3]; 338 mg/kg single i.p.): 101%
survival ([3]; 338 mg/kg single i.p.): surv (surv, animals survived the 14 days period)
body weight, percentage of the body weight before the experiment ([3]; 508 mg/kg single i.p.): 99%
survival ([3]; 508 mg/kg single i.p.): surv (surv, animals survived the 14 days period)
body weight, percentage of the body weight before the experiment ([3]; 720 mg/kg single i.p.): 101%
survival ([3]; 720 mg/kg single i.p.): surv (surv, animals survived the 14 days period)
body weight, percentage of the body weight before the experiment ([3]; 1148 mg/kg single i.p.): 69%
survival ([3]; 1148 mg/kg single i.p.): 8.5 days
body weight, percentage of the body weight before the experiment ([3]; 1714 mg/kg single i.p.): 93%
survival ([3]; 1714 mg/kg single i.p.): 4 days
body weight, percentage of the body weight before the experiment ([3]; 2571 mg/kg single i.p.): 95%
survival ([3]; 2571 mg/kg single i.p.): 4 days
ALT (Hprt −/− mice; 25 mg/kg single i.p.): 28.7 ± 14.9 u/l
AP (Hprt −/− mice; 25 mg/kg single i.p.): 78.7 ± 22.5 u/l
AST (Hprt −/− mice; 25 mg/kg single i.p.): 53.3 ± 17.5 u/l
BUN (Hprt −/− mice; 25 mg/kg single i.p.): 18.5 ± 0.6 mg/dL
CK (Hprt −/− mice; 25 mg/kg single i.p.): 67.7 ± 41.2 u/l
ALT (Hprt −/− mice; 500 mg/kg single i.p.): 14.3 ± 3.5 u/l
AP (Hprt −/− mice; 500 mg/kg single i.p.): 71.0 ± 38.0 u/l
AST (Hprt −/− mice; 500 mg/kg single i.p.): 50. ± 11.8 u/l
BUN (Hprt −/− mice; 500 mg/kg single i.p.): 18.0 ± 1.0 mg/dL
CK (Hprt −/− mice; 500 mg/kg single i.p.): 52.0 ± 23.3 u/l
ALT (Hprt −/− mice; 720 mg/kg single i.p.): 13.7 ± 1.5 u/l
AP (Hprt −/− mice; 720 mg/kg single i.p.): 78.7 ± 20.5 u/l
AST (Hprt −/− mice; 720 mg/kg single i.p.): 43.3 ± 14.0 u/l
BUN (Hprt −/− mice; 720 mg/kg single i.p.): 20.0 ± 2.7 mg/dL
CK (Hprt −/− mice; 720 mg/kg single i.p.): 37.3 ± 11.6 u/l
